Measured values: patent US10017556B2, “Insulin receptor partial agonists” (MERCK SHARP & DOHME CORP., priority 2014, dated 2018)

Tested on: lean C57BL/6NTac mice
Assay: Intraperitoneal Insulin Tolerance Test (IP-ITT)
Type: in vivo
Conditions: intraperitoneal injection, two doses per compound (Table 16), blood glucose 30 to 360 min after dose
Method: Groups of N=6-8 animals per group were randomized by weight (average about 30 grams). Two days prior to study, the mice were conditioned to dosing with an intraperitoneal injection of 0.9% Sodium Chloride solution at 5 ml/kg dosing volume. On the morning of the study, food was removed two or four hours prior to the study. Blood glucose concentrations were determined at T=0 min (baseline) using a Glucometer. […] Blood glucose levels were determined from tail bleeds taken between 30 to 360 minutes after dose.

## B29,B29′-suberoyl-(insulin)2 [Compound B, reference compound]
  glucose profile at low versus high dose in IP-ITT: increasing the dosage of compounds A and B caused an increased glucose lowering potency
